What all share (assay): NCI-60 cell line screen, 48 h
Assay [1] has as its system COLO 205 colon.
Assay [2] deals with CCRF-CEM leukemia.
The test system of assay [3] is SN12C renal.
Assay [4] deals with T-47D breast.
In assay [5] the test system is NCI-H23 lung.
The subject of assay [6] is SK-MEL-5 melanoma.
Assay [7] relates to SR leukemia.
In assay [8] the test system is DU-145 prostate.
The test system of assay [9] is ACHN renal.
The test system of assay [10] is UO-31 renal.
The test system of assay [11] is NCI/ADR-RES ovarian.
Assay [12] relates to SK-MEL-28 melanoma.
Assay [13] relates to MALME-3M melanoma.
Assay [14] has as its system MDA-N.
The test system of assay [15] is IGROV1 ovarian.
The subject of assay [16] is OVCAR-8 ovarian.
Assay [17] deals with RXF 393 renal.
Assay [18] concerns RPMI-8226 leukemia.

The results in this text go back to PubChem BioAssay (NCI).

Molecules are shown by their SMILES.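 Briefly, cells in 96-well plates were exposed to five compound concentrations for 48 h, and endpoints were estimated by linear interpolation. TGI marks complete inhibition of growth.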

Turning to `COc1ccc(/C=C/C(=O)c2ccc(OC(=O)/C=C/c3ccccc3)cc2)cc1`, the TGI in [1] is greater than 71.6 µM; in assay [2], 21.5 µM; in assay [3], greater than 69.7 µM; in [4] it was 62.8 µM; in assay [5] it was 73.8 µM; in assay [6] it was greater than 70 µM. The TGI in [7] was 16.9 µM; in [8] it was greater than 74.2 µM; in assay [9], greater than 100 µM; in assay [10] it was greater than 91.5 µM; in [11], greater than 100 µM; in assay [12] it was greater than 100 µM. Further, the TGI in [13] was greater than 100 µM; in assay [14], greater than 100 µM; in assay [15], greater than 77.7 µM; in assay [16], greater than 83.2 µM; in assay [17] it was greater than 100 µM; in assay [18] it was 24.7 µM.

In the case of `COc1cc(/C=N/NC2=NCCCCN2)ccc1O`, the TGI in assay [1], in [2], in assay [3], in [4], in assay [5] and in [6] was greater than 100 µM in each case. For the same molecule, the TGI in [7], in assay [8], in assay [9], in [10], in assay [11] and in assay [12] was greater than 100 µM each time. In addition, the TGI in assay [13], in assay [14], in [15], in assay [16], in assay [17] and in [18] was greater than 100 µM each time.

With `O=C1C(S(=O)(=O)c2ccccc2)=C(CS(=O)(=O)c2ccccc2)[C@@H](OCc2ccccc2)[C@@H]1OCc1ccccc1`, the TGI is 61.3 µM in assay [1]; 42.7 µM in assay [2]; 76.4 µM in [3]; greater than 100 µM in assay [4]; 36.3 µM in assay [5]; 40.2 µM in assay [6]. In addition, the TGI is 33.5 µM in [7]; greater than 100 µM in assay [8]; greater than 100 µM in assay [9]; 37.1 µM in assay [10]; 54.4 µM in [11]; 35.9 µM in assay [12]. For the same molecule, the TGI in [13] was determined as 36.1 µM; in assay [14], 88.7 µM; in assay [15] it was 33.8 µM; in [16], 39.8 µM; in assay [17], 27.8 µM; in [18], 36.1 µM.

In the case of `Cc1c(F)c(NC(=O)CN(C)C)c2c(=O)cc(-c3ccc(NC(=O)CN(C)C)c(F)c3)oc2c1F`, the TGI is 38 µM in assay [1]; 57 µM in [2]; 36.3 µM in [3]; 55.8 µM in [4]; 36.1 µM in assay [5]; 30.6 µM in assay [6]. In addition, the TGI in assay [7] is 6.15 µM; in assay [8] it was 26.5 µM; in [9] it was 29.6 µM; in [10] it was 26.9 µM; in assay [11] it was 39.6 µM; in assay [12], 40.9 µM. Further, the TGI is 45.9 µM in assay [13]; 34 µM in assay [14]; 32.1 µM in [15]; 37.5 µM in assay [16]; 25.6 µM in [17]; 38.9 µM in assay [18].

On to `Nc1nc(=S)n(-c2ccc(Cl)cc2)c2nc3ccccc3cc12`, for which the TGI in assay [1], in assay [2], in assay [3], in assay [4], in assay [5] and in assay [6] was greater than 100 µM in each case. Also, the TGI in [7], in assay [8], in [9], in assay [10], in assay [11] and in [12] was greater than 100 µM each time. Further, the TGI in assay [13], in [14], in assay [15], in assay [16], in [17] and in [18] was greater than 100 µM throughout.

As for `CC1=NN(c2nc(N)nc(/C(C#N)=C\c3cccc([N+](=O)[O-])c3)n2)C(C)(C)C1`, the TGI in [1] is greater than 48 µM; in assay [2], greater than 66.8 µM; in assay [3] it was greater than 65.3 µM; in [4], 64.8 µM; in assay [5], greater than 72 µM; in [6], greater than 42.6 µM. Also, the TGI in assay [7] was greater than 73.1 µM; in assay [8], 50.8 µM; in [9], greater than 51.4 µM; in [10], 15.7 µM; in assay [11], greater than 66.7 µM; in assay [12], greater than 65 µM. The TGI is greater than 54.9 µM in assay [13]; greater than 33.3 µM in assay [14]; 34.1 µM in assay [15]; 54 µM in assay [16]; 14.3 µM in assay [17]; 13.1 µM in [18].

On to `CCCC(=O)NC(Nc1ccc(S(=O)(=O)Nc2ccc(OC)nn2)cc1)(C(F)(F)F)C(F)(F)F`, for which the TGI in assay [1], in [2], in [3], in [4], in assay [5] and in assay [6] was greater than 100 µM in each case. Moreover, the TGI in assay [7], in assay [8], in [9], in [10], in assay [11] and in assay [12] was greater than 100 µM each time. Further, the TGI in assay [13], in assay [14], in assay [15], in [16], in assay [17] and in assay [18] was greater than 100 µM each time.

As for `COc1cccc(/C=C\c2ccc(O)cc2)c1`, the TGI in [1] is greater than 100 µM; in [2], 1.22 µM; in assay [3] it was greater than 68.3 µM; in [4], greater than 84.2 µM; in assay [5], 39.6 µM; in assay [6] it was greater than 51.7 µM. For the same molecule, the TGI is 20.1 µM in assay [7]; 56.6 µM in [8]; greater than 89.2 µM in assay [9]; 33.7 µM in assay [10]; 31.7 µM in [11]; greater than 100 µM in [12]. Moreover, the TGI is 65.9 µM in assay [13]; greater than 100 µM in [14]; greater than 100 µM in assay [15]; 56.2 µM in [16]; greater than 78.8 µM in assay [17]; greater than 100 µM in assay [18].
